pIC50: −log10 of the molar value.
Assays:
[1] = target: T1, Histidine tagged HIF-2α protein containing PAS-B domain (240-350) (Homo sapiens, UniProt Q99814); assay: HIF-2α Scintillation Proximity Assay (SPA) binding assay; settings: 50 nM HIF-2α protein, 25 nM 3H-tracer
T1 construct: HIF-2α protein containing PAS-B domain (240-350); made in house
Experimental: HIF-2α Scintillation Proximity Assay (SPA) Binding Assay:
Tritium labeled compound N-(3-chlorophenyl)-4-nitro-2,1,3-benzoxadiazol-5-amine was obtained from American Radiolabeled Chemicals Inc. and copper chelate PVT SPA beads were from PerkinElmer (Cat #RPNQ0095). Histidine tagged HIF-2α protein containing PAS-B domain (240-350) was prepared and purified in house.
Compounds solubilized in DMSO were dispensed into a white 384-well polystyrene non-binding flat clear bottom plate (Greiner Bio-One, Cat #781903) using an HP D300 dispenser. Ten microliters of HIS-tagged HIF-2α protein in buffer (25 mM Tris-HCl, pH 7.4, 150 mM NaCl, 0.15% BSA and 0.001% Tween 20) was added to the compound wells and allowed to incubate for 1 hour at room temperature. Ten microliters of SPA bead mix were added to the wells and incubated for an additional 45 minutes, followed by 10 ul of ^3H-tracer solution. Final assay conditions comprised 50 nM HIF-2α protein, 25 nM radiolabeled tracer and 3 ug beads per well with compounds in 2% DMSO. The plate was read using a MicroBeta Microplate Counter (PerkinElmer) for luminescence detection. The IC50 values of the test compounds were determined from compound dose response curves fitted using a standard four parameter fit equation and are reported in Table 1, Table 2, and Table 3.

HIF-2α = target: T2, HIF-2α (Homo sapiens, UniProt Q99814); assay: HIF-2α luciferase reporter assay in HIF-Luc-786-O cells; assay type: cell-based
T2 construct: host or cells: 786-O cells stably transduced with Cignal Lenti HIF Luc Reporter (only the reporter was introduced, not HIF-2α)
T2 sequence (Q99814 whole entry): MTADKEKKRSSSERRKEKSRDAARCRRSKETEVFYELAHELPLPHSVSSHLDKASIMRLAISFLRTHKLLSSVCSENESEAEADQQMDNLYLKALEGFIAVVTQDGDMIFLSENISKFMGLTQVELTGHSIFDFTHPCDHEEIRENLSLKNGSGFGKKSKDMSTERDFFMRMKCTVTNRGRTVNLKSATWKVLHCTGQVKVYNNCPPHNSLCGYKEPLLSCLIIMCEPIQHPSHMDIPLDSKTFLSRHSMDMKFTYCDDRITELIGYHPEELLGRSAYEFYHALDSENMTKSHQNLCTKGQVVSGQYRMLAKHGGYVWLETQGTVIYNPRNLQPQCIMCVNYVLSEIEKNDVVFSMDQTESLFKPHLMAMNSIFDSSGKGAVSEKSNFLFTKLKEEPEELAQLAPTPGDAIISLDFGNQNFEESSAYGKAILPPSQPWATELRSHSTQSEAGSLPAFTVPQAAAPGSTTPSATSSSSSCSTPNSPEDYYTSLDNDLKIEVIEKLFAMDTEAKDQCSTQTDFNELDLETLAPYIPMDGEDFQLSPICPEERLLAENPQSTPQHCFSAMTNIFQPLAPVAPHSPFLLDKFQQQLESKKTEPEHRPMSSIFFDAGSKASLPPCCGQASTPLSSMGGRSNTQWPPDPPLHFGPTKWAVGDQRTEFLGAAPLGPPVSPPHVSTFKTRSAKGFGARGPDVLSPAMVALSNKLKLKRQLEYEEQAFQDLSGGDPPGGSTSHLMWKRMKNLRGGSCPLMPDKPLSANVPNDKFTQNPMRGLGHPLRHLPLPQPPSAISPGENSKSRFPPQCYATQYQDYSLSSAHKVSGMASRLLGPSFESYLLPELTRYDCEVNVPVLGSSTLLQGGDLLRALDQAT
How it was run: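 Luminescence (ONE-Glo) read after 20 h compound incubation, top concentration 50 uM, 1% DMSO, 20,000 HIF-Luc-786-O cells per well. Activity scaled between DMSO maximum and no-cell baseline; four-parameter dose-response fits yielded IC50.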

T1 sequence (Q99814 240-350): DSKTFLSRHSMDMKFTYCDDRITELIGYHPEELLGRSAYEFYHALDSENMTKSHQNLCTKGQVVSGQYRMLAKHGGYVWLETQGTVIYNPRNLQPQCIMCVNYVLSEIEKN

pIC50 ([1]; Table 1)	pIC50 (HIF-2α; Table 1, 20 hours incubation)	Compound	further results
6.00 to 7.00	< 6.00	N#Cc1c(S(=O)(=O)C(F)(F)F)ccc(N2CCCc3cc(F)cc(Cl)c32)c1Cl [Example 12, 2-chloro-3-(8-chloro-6-fluoro-1,2,3,4-tetrahydroquinolin-1-yl)-6-trifluoromethanesulfonylbenzonitrile]	–
> 7.00	> 7.00	N#Cc1cc(F)cc2c1[C@@H](c1ccc(S(=O)(=O)C(F)F)c3c1C[C@@H](F)[C@H]3O)CCC2 [Example 115]	–
< 6.00	< 6.00	N#Cc1ccc2c(c1)N(c1ccc(S(=O)(=O)C(F)(F)F)cc1[N+](=O)[O-])CCC2 [Example 65]	–
6.00 to 7.00	6.00 to 7.00	O=S(=O)(c1ccc(N2CCCc3cc(F)cc(F)c32)c2c1[C@H](O)[C@H](F)C2)C(F)(F)F [Example 33]	–
–	–	Cc1ncsc1-c1ccc([C@H]2CC[C@H](F)c3cc(F)cc(C#N)c32)c2c1[C@H](O)C(F)(F)C2 [Example 167, (5S,8R)-8-[(1S)-2,2-difluoro-1-hydroxy-7-(4-methyl-1,3-thiazol-5-yl)-2,3-dihydro-1H-inden-4-yl]-3,5-difluoro-5,6,7,8-tetrahydronaphthalene-1-carbonitrile]	pIC50 ([1]; Table 3): > 7.00; pIC50 (HIF-2α; Table 3, 20 hours incubation): > 7.00
–	–	CS(=O)(=O)c1ccc([C@H]2CCC(F)(F)c3cc(F)cc(C#N)c32)c2c1[C@H](O)[C@H](F)C2 [Example 135, (8R)-3,5,5-Trifluoro-8-[(1S,2R)-2-fluoro-1-hydroxy-7-methylsulfonyl-2,3-dihydro-1H-inden-4-yl]-7,8-dihydro-6H-naphthalene-1-carbonitrile]	pIC50 ([1]; Table 2): > 7.00; pIC50 (HIF-2α; Table 2, 20 hours incubation): > 7.00
6.00 to 7.00	< 6.00	O=S(=O)(c1ccc([C@@H]2c3c(F)cc(F)cc3CC[C@@H]2O)c2c1[C@H](O)[C@H](F)C2)C(F)(F)F [Example 101]	–
< 6.00	< 6.00	O=[N+]([O-])c1cc(C(F)(F)F)ccc1N1CCCc2cc(F)cc(F)c21 [Example 24, 6,8-difluoro-1-[2-nitro-4-(trifluoromethyl)phenyl]-1,2,3,4-tetrahydroquinoline]	–
6.00 to 7.00	< 6.00	O=S1(=O)c2ccc(N3CCCc4cc(F)cc(F)c43)c(Cl)c2C(O)C1(F)F (centres unmarked) [Example 52]	–
–	–	N#Cc1cc(F)cc2c1[C@@H](c1ccc(-c3cccnc3N)c3c1CC(F)(F)[C@H]3O)CC[C@@H]2F [Example 153, (5S,8R)-8-[(1S)-7-(2-aminopyridin-3-yl)-2,2-difluoro-1-hydroxy-1,3-dihydroinden-4-yl]-3,5-difluoro-5,6,7,8-tetrahydronaphthalene-1-carbonitrile]	pIC50 ([1]; Table 3): > 7.00; pIC50 (HIF-2α; Table 3, 20 hours incubation): > 7.00
–	–	N#Cc1cc(F)cc2c1[C@@H](c1ccc(C(F)(F)F)c(Cl)c1C#N)CC[C@H]2F [Example 138, (5R,8R)-8-[3-chloro-2-cyano-4-(trifluoromethyl)phenyl]-3,5-difluoro-5,6,7,8-tetrahydronaphthalene-1-carbonitrile]	pIC50 ([1]; Table 2): < 6.00; pIC50 (HIF-2α; Table 2, 20 hours incubation): 6.00 to 7.00
< 6.00	< 6.00	O=S(=O)(c1ccc(N2C[C@@H](O)Cc3cc(F)cc(F)c32)c2c1[C@H](O)[C@H](F)C2)C(F)(F)F [Example 66]	–
> 7.00	> 7.00	O=S(=O)(c1ccc([C@H]2CCCc3cc(F)cc(F)c32)c2c1[C@H](O)[C@H](F)C2)C(F)(F)F [Example 2a, (1S,2R)-4-[R-6,8-difluoro-1,2,3,4-tetrahydronaphth-1-yl]-2-fluoro-7-(trifluoromethylsulfonyl)-1-indanol]	–
< 6.00	< 6.00	N#Cc1cc(F)cc2c1N(c1ccc(C(F)(F)F)c(F)c1C(O)C(F)(F)F)CCC2 (centres unmarked) [Example 61]	–
6.00 to 7.00	6.00 to 7.00	CS(=O)(=O)c1ccc([C@H]2CCCc3cc(F)cc(F)c32)c2c1[C@H](O)[C@H](F)C2 (stereo in doubt) [Example 99]	–
< 6.00	< 6.00	O=[N+]([O-])c1cc(C(O)C(F)(F)F)ccc1N1CCCc2cc(F)cc(F)c21 (centres unmarked) [Example 84]	–
–	–	Cn1nncc1-c1ccc([C@H]2CC[C@H](F)c3cc(F)cc(C#N)c32)c2c1[C@H](O)C(F)(F)C2 [Example 147, (5S,8R)-8-[(1S)-2,2-difluoro-1-hydroxy-7-(3-methyltriazol-4-yl)-1,3-dihydroinden-4-yl]-3,5-difluoro-5,6,7,8-tetrahydronaphthalene-1-carbonitrile]	pIC50 ([1]; Table 3): > 7.00; pIC50 (HIF-2α; Table 3, 20 hours incubation): > 7.00
–	–	N#Cc1cc(F)cc2c1[C@@H](c1ccc(-c3cccnc3CF)c3c1CC(F)(F)[C@H]3O)CC[C@@H]2F [Example 173]	pIC50 ([1]; Table 3): > 7.00; pIC50 (HIF-2α; Table 3, 20 hours incubation): > 7.00

pIC50 ([1]; Table 1)	pIC50 (HIF-2α; Table 1, 20 hours incubation)	Compound	further results
6.00 to 7.00	< 6.00	O=S1(=O)c2ccc(N3CCCc4cc(F)cc(F)c43)c(Cl)c2C(F)C1(F)F (centres unmarked) [Example 56]	–
–	–	N#Cc1cc(F)cc2c1N(c1cnc(C(F)(F)F)c(F)c1Cl)CCC2(F)F [Example 127, 1-[4-Chloro-5-fluoro-6-(trifluoromethyl)pyridin-3-yl]-4,4,6-trifluoro-2,3-dihydroquinoline-8-carbonitrile]	pIC50 ([1]; Table 2): > 7.00; pIC50 (HIF-2α; Table 2, 20 hours incubation): > 7.00
< 6.00	< 6.00	CS(=O)(=O)c1ccc([C@@H]2CCCc3cnccc32)c2c1[C@H](O)C(F)(F)C2 [Example 106]	–
6.00 to 7.00	6.00 to 7.00	N#Cc1cc(F)cc2c1[C@@H](c1ccc(Cl)c3c1CC(F)(F)[C@H]3O)CCC2 [Example 117]	–
< 6.00	< 6.00	O=S(=O)(c1ccc([C@@H]2CCOc3cc(F)cc(F)c32)c2c1[C@H](O)[C@H](F)C2)C(F)(F)F [Example 104]	–
< 6.00	< 6.00	O=S(=O)(c1ccc([C@H]2CCNc3cc(F)cc(F)c32)c2c1[C@H](O)[C@H](F)C2)C(F)(F)F [Example 102]	–
–	–	CS(=O)(=O)c1ccc([C@H]2C[C@H](F)[C@H](F)c3cc(F)cc(C#N)c32)c2c1[C@H](O)[C@H](F)C2 [Example 215, (5R,6S,8R)-3,5,6-trifluoro-8-[(1S,2R)-2-fluoro-1-hydroxy-7-methanesulfonyl-2,3-dihydro-1H-inden-4-yl]-5,6,7,8-tetrahydronaphthalene-1-carbonitrile]	pIC50 ([1]; Table 3): > 7.00; pIC50 (HIF-2α; Table 3, 20 hours incubation): > 7.00
6.00 to 7.00	< 6.00	O=S(=O)(c1ccc(N2CCCc3cc(F)cc(F)c32)c2c1C(F)CC2)C(F)(F)F (centres unmarked) [Example 49]	–
< 6.00	< 6.00	N#Cc1cc(F)cc2c1[C@H](c1ccc(C(F)(F)F)c3c1OC(F)(F)[C@H]3O)CCC2 [Example 108]	–
–	–	CS(=O)(=O)c1c(Cl)cc([C@H]2CC[C@H](F)c3cc(F)cc(C#N)c32)c2c1[C@H](O)[C@H](F)C2 [Example 213, (5S,8R)-8-[(1S,2R)-6-Chloro-2-fluoro-1-hydroxy-7-methylsulfonyl-2,3-dihydro-1H-inden-4-yl]-3,5-difluoro-5,6,7,8-tetrahydronaphthalene-1-carbonitrile]	pIC50 ([1]; Table 3): > 7.00; pIC50 (HIF-2α; Table 3, 20 hours incubation): > 7.00
6.00 to 7.00	< 6.00	CS(=O)(=O)c1ccc(N2CCCc3cc(F)cc(F)c32)c2c1[C@H](O)C(F)(F)C2 (stereo in doubt) [Example 22, 4-(6,8-difluoro-1,2,3,4-tetrahydroquinolin-1-yl)-2,2-difluoro-7-methanesulfonyl-2,3-dihydro-1H-inden-1-ol]	–
< 6.00	< 6.00	COc1ccc2c(c1)N(c1ccc(S(=O)(=O)C(F)(F)F)cc1[N+](=O)[O-])CCC2 [Example 60]	–
< 6.00	< 6.00	Cc1ccc2c(c1)N(c1ccc(S(=O)(=O)C(F)(F)F)cc1[N+](=O)[O-])CCC2 [Example 74]	–
< 6.00	< 6.00	CC(O)(c1ccc(N2CCCc3cc(F)cc(F)c32)c([N+](=O)[O-])c1)C(F)(F)F (centres unmarked) [Example 87]	–
–	–	Cc1cnccc1-c1ccc([C@H]2CC[C@H](F)c3cc(F)cc(C#N)c32)c2c1[C@H](O)C(F)(F)C2 [Example 242, (5S,8R)-8-[(1S)-2,2-difluoro-1-hydroxy-7-(3-methylpyridin-4-yl)-2,3-dihydro-1H-inden-4-yl]-3,5-difluoro-5,6,7,8-tetrahydronaphthalene-1-carbonitrile]	pIC50 ([1]; Table 3): > 7.00; pIC50 (HIF-2α; Table 3, 20 hours incubation): > 7.00
–	–	CS(=O)(=O)c1ccc(N2CCC(F)c3cc(F)cc(C#N)c32)c(C#N)c1Cl (centres unmarked) [Example 122, 1-(3-chloro-2-cyano-4-methylsulfonylphenyl)-4,6-difluoro-3,4-dihydro-2H-quinoline-8-carbonitrile]	pIC50 ([1]; Table 2): > 7.00; pIC50 (HIF-2α; Table 2, 20 hours incubation): > 7.00
6.00 to 7.00	< 6.00	CS(=O)(=O)c1ccc(N2CCCc3cc(F)cc(F)c32)c(Cl)c1C#N [Example 43]	–
< 6.00	< 6.00	N#Cc1c(Cl)ccc(N2CCCc3cc(F)cc(F)c32)c1C(F)F [Example 71]	–

Compound	pIC50 ([1]; Table 1)	pIC50 (HIF-2α; Table 1, 20 hours incubation)	further results
N#Cc1cc(F)cc2c1N(c1ccc(C(F)(F)F)c(F)c1C#N)CCC2 [Example 118]	6.00 to 7.00	6.00 to 7.00	–

— US11787762B2, “Tetralin and tetrahydroquinoline compounds as inhibitors of HIF-2alpha” (ARCUS BIOSCIENCES, INC., priority 2020, dated 2023)
